Data taken from PubChem BioAssay AID2305 (GlaxoSmithKline (GSK), 2010).

The compounds below were run on P. falciparum 3D7 growth, pLDH absorbance (assay: P. falciparum 3D7 growth inhibition, dose response, strain 3D7 (AID 2305)).

Point of comparison: `CCOC(=O)c1ccc(N2CCN(CCCNC(=O)/C(=C/C=C/c3cc4cc(Cl)c(Cl)cc4[nH]3)OC)CC2)cc1`, IC50 850 nM. Against it:
- O=S(=O)(c1ccc(Cl)cc1Cl)N1CCCCC(c2ccc(C(F)(F)F)cc2)=N1 — 5.3-fold lower, 160 nM
- CCc1nc2nc(C)cc(Nc3ccc(F)c(Cl)c3)n2n1 — within 1.5-fold, 970 nM
- COc1cc(C(=O)Nc2cccc(-c3nc4ccccc4[nH]3)c2)ccc1OC(C)=O — within 1.5-fold, 760 nM
- O=C(CNC1=NCCN1)Nc1ccc(NC(=O)Nc2ccc(NC(=O)CNC3=NCCN3)cc2)cc1 — within 1.5-fold, 780 nM
- O=C(Nc1cccc(C(F)(F)F)c1)c1cccc(S(=O)(=O)NCC2CCCN(CC3CCCCC3)C2)c1 (stereo not drawn) — within 1.5-fold, 880 nM
- COc1ccc(C(=O)Nc2ccc3oc(-c4ccc(C(F)(F)F)cc4)cc3c2)cc1CCCN(C)C — within 1.5-fold, 700 nM
- C=CCN(c1ccc(OC)cc1)S(=O)(=O)c1ccc(Cl)c(C(=O)Nc2cccc(C#N)c2)c1 — within 1.5-fold, 580 nM
- N#CCCN1CCN(Cc2cccc(-c3ccc(-c4nc5ccccc5[nH]4)cc3)c2)CC1 — within 1.5-fold, 1020 nM
- Cc1cccc(C)c1OC(=O)[C@@H](C)[C@@H](O)C1(Sc2ccccc2)CCN(C)CC1 — within 1.5-fold, 730 nM
- COc1ccc(Nc2ncc3c(-c4cccc(NC(=O)c5ccccc5)c4)c[nH]c3n2)cc1OC — 1.8-fold lower, 460 nM
- COc1cc(Cc2cnc(N)nc2N)cc(OCCCC#N)c1OC — within 1.5-fold, 1030 nM
- Nc1ncnc2nc(-c3ccc(F)cc3)cc(-c3ccc(NC(=O)c4ccccc4)cc3)c12 — within 1.5-fold, 640 nM
- CO/C(=C\C=C\c1cc2cc(Cl)c(Cl)cc2[nH]1)C(=O)NCCCN1CCN(c2cccc(CCO)c2)CC1 — within 1.5-fold, 720 nM
- CN1CCC(NCc2ccc(-c3ccc(S(=O)(=O)NCc4ccccc4)c(F)c3)cc2)CC1 — within 1.5-fold, 610 nM
- CN(C)CCNCc1nc(-c2ccc3c(Nc4ccc(Cl)cc4F)ccnc3c2)cs1 — within 1.5-fold, 810 nM
- CCC(C)(C)N[C@@H](C)[C@@H](O)c1ccc(C(F)(F)F)cc1 — within 1.5-fold, 750 nM
- Cc1cc(NCCC(=O)NCCOc2ccccc2)nc(NCc2ccccc2C)n1 — within 1.5-fold, 870 nM
- O=C(Nc1ccc(OC(F)(F)F)cc1)NC1CCN(c2ccnc3ccccc23)C1 (stereo not drawn) — 3.5-fold lower, 240 nM
- COCC(=O)N(Cc1cccc(-c2ccc(CNCCc3ccccc3)cc2)c1)C1CCN(Cc2ccccc2)CC1 — within 1.5-fold, 1100 nM
- COc1ccc(Cl)cc1N1CCN(CCCNC(=O)c2ccc(-c3nc4cc(Cl)c(C)cc4[nH]3)c(F)c2)CC1 — 4.7-fold lower, 180 nM
- O=C(Nc1cccc(CN2CCN(C(=O)c3cccs3)CC2)c1)c1cccs1 — within 1.5-fold, 780 nM
- COc1ccc2nccc(NCC3(O)CCN(CCc4ccc5c(c4)OCCO5)CC3)c2n1 — within 1.5-fold, 600 nM
- O=[N+]([O-])c1cccc(CNCC2CCN(CC3CCCCC3)CC2)c1 — 1.5-fold higher, 1290 nM
- Cc1cc(-c2ccc(CNC3Cc4ccccc4C3)cc2)ccc1S(=O)(=O)NCCN1CCCC1 — within 1.5-fold, 700 nM
- Cc1ccc(Nc2nc(NN=Cc3cccc([N+](=O)[O-])c3)nc(Nc3ccccc3)n2)c(C)c1 — within 1.5-fold, 630 nM
- COc1ccc(NS(=O)(=O)c2ccccc2Br)cc1N1CCN(C)CC1 — within 1.5-fold, 970 nM
- COc1ccc2nccc([C@@H](O)CN3CCC(NCc4cn5cc(F)ccc5n4)CC3)c2c1 — within 1.5-fold, 780 nM
- Cc1noc(C)c1-c1cccc(CNCc2ccc(-c3ccc(-c4nc5ccc(C(F)(F)F)cc5[nH]4)s3)cc2)c1 — 4.7-fold lower, 180 nM
- FC(F)(F)c1ccc2nc(-c3ccc(-c4ccc(CNCCN5CCNCC5)cc4)s3)[nH]c2c1 — within 1.5-fold, 910 nM
- CCCCOc1ccc(CNCCCCCCNCc2ccc(OCCCC)c3ccccc23)c2ccccc12 — within 1.5-fold, 1130 nM
- COc1ccc2c(NN=Cc3cccc(Cl)c3)cc(C)nc2c1 — within 1.5-fold, 730 nM
- COc1ccc(CC2(c3ccc(F)cc3)N=C(N)N(CCCc3ccc4c(c3)OCO4)C2=O)cc1 (stereo not drawn) — within 1.5-fold, 740 nM
- NC1=NC(Cc2ccccc2)(c2ccncc2)C(=O)N1CCCc1ccccc1 (stereo not drawn) — within 1.5-fold, 940 nM
- CC(=O)N1N=C(c2ccc(Cl)cc2)Sc2c1nc(C1CCCCC1)n2C(C)=O — 3.4-fold lower, 250 nM
- CN1CCN(Cc2ccc(-c3ccc4c(Nc5cc(O)c(F)cc5Cl)ccnc4c3)o2)CC1 — 6.5-fold lower, 130 nM
- CN1CCC(N2CCN(Cc3cccc(-c4ccc(-c5nc6ccc(F)cc6[nH]5)cc4)c3)CC2)CC1 — 7.7-fold lower, 110 nM
- FC(F)(F)c1cccc(Nc2nc(-n3ccnc3)nc(-n3ccnc3)n2)c1 — within 1.5-fold, 720 nM
- COc1ccc2nccc([C@@H](O)CN3CCC(NC(=O)/C=C/c4cc(F)cc(NC(C)=O)c4)CC3)c2c1 — 4.7-fold lower, 180 nM
- COc1ccc2nccc([C@@H](O)CN3CCC(NCCOc4ccc(F)cc4F)CC3)c2c1 — 6.1-fold lower, 140 nM
- c1cc2nc(CCc3nc4ccc(C5=N[C@H]6CCCC[C@H]6N5)cc4[nH]3)[nH]c2cc1C1=N[C@@H]2CCCC[C@@H]2N1 — 3.7-fold lower, 230 nM
- COc1ccc(Cn2c(Nc3cccc(C(F)(F)F)c3)nc3cc(C(=O)NCCN4CCCC4)ccc32)cc1Cl — within 1.5-fold, 830 nM
- COc1ccc(OCC(O)CN(Cc2ccccc2OC)C(=O)Nc2ccc(Br)cc2)cc1 (stereo not drawn) — within 1.5-fold, 750 nM
- CN(C)CCNC(=O)N1CCCN(c2ncnc3cc(-c4ccc(Cl)cc4)sc23)CC1 — within 1.5-fold, 1020 nM
- CCN(CC)CCCN(CCCN(CC)CC)c1cc(C)nc(Nc2ccc(Br)cc2)n1 — 4.2-fold lower, 200 nM
- CC(C)CNCc1ccc(-c2cccc(-c3nc4ccccc4[nH]3)c2)cc1 — within 1.5-fold, 630 nM
- CNC(=O)NC1=NC(C)(C)N(OCc2ccc(Cl)c(Cl)c2)C(NC(=O)NC)=N1 — within 1.5-fold, 600 nM
- CCN(CC)CCCN(CCCN(CC)CC)c1cc(C)nc(Nc2ccc3cc(Br)ccc3c2)n1 — within 1.5-fold, 570 nM
